Data on six compounds can be found in patent publication US20230157319A1, “SUPPLEMENTS AND COMPOSITIONS CONTAINING AMINO ACIDS AND IGF-1 AND METHODS OF USE” (PURETEIN BIOSCIENCE LLC, priority 2020, published 2023).

The assay relates to porcine satellite cells. In words: myotube size of differentiated porcine satellite cells, 72 hour treatment. The assay is classed as cell-based. The conditions noted are these: for myotube size compared to the control treatment: each alone in DM: 5 ng/mL IGF-1, 4 mM L-glutamine, 10 mM L-lysine, 10 μM L-methionine, 72 hour, FIG. 1; for myotube size compared to the control treatment / myotube growth on addition to the combination: 1 mM L-leucine, 1 mM L-arginine; for myotube growth on addition to the combination: titrated 0.5-3 mM into 5 ng/mL IGF-1, 3 mM L-glutamine, FIGS. 6 and 7; for useful inclusion (minimum amount required to produce the maximal growth response): titrated within the combination with 5 ng/mL active IGF-1, FIGS. 3-5.

In the case of `CSCC[C@H](N)C(=O)O` [L-methionine], the “myotube size compared to the control treatment” value was “increase the myotube size compared to the control treatment” and the “myotube growth on addition to the combination” value was “did not provide any increase in myotube growth”.

For `NCCCC[C@H](N)C(=O)O` [L-lysine], the “myotube size compared to the control treatment” value is listed as “increase the myotube size compared to the control treatment” and the “myotube growth on addition to the combination” value was “did not provide any increase in myotube growth”.

Take `N=C(N)NCCC[C@H](N)C(=O)O` [L-arginine]: the “myotube size compared to the control treatment” value is given as “more profound growth response of myotubes” and the “useful inclusion (minimum amount required to produce the maximal growth response)” value (shortened to “useful inclusion”) was determined as 1 mM.

Consider `CC(C)C[C@H](N)C(=O)O` [L-leucine], for which the “myotube size compared to the control treatment” value was “more profound growth response of myotubes” and the “useful inclusion” value turned out to be 1 mM.

Take `NC(=O)CC[C@H](N)C(=O)O` [L-glutamine]: the “myotube size compared to the control treatment” value was “more profound growth response of myotubes” and the “useful inclusion” value came to 3 mM.

As for insulin-like growth factor 1 [IGF-1], the “myotube size compared to the control treatment” value is reported as “increase the myotube size compared to the control treatment”.
